On the set-up of data set [1]: method as in earlier work. Conditions: based on BCS classification (20); ref (24), (26), (28), (29), (31), (34), (35), (38); cited from earlier work.
The nature of data set [2]: Relative effect of MgSt on drug apparent solubility (shake-flask, physical mixtures). Conditions: phosphate buffer pH 6.8.
Experimental: Drug solubility studies in the absence and presence of excipient were performed in triplicate using the shake-flask method [41]. Drug excess amount and 2% w/w or 5% w/w of each excipient were weighed and placed in centrifuge tubes. […] The physical mixtures were vortexed for 3 min. Five millilitres of each medium was added in the tubes and the samples were placed in a shaking water bath (37°C, 200 strokes per minute (spm)). […] Filter adsorption studies were performed prior in triplicate for each drug. […] Filtered samples were further diluted (if needed) with the corresponding medium and analysed by HPLC (Supplementary Table I). […] Drug quantification was made based on calibration curves. Standards were formulated from concentrated stock solutions consisting of drug dissolved in MeOH. As changes in the pH of solutions by the presence of the dissolved drug [34] or MgSt [43, 44] may affect drug solubility, the pH of samples after the completion of each experiment was measured. Drug solubility was calculated based on the sample drug concentration measured.
The relative effect (RE) of each excipient on drug apparent solubility was calculated based on Eq.

For `OCCN(CCO)c1nc(N2CCCCC2)c2nc(N(CCO)CCO)nc(N3CCCCC3)c2n1` [DPL, Dipyridamole], the “Solubility (BCS-based class)” value in data set [1] is “Low (34)”.

For `CCC(C)n1ncn(-c2ccc(N3CCN(c4ccc(OCC5COC(Cn6cncn6)(c6ccc(Cl)cc6Cl)O5)cc4)CC3)cc2)c1=O` (centres unmarked) [ITZ, Itraconazole], in data set [1], the “Solubility (BCS-based class)” value is reported as “Low (38)”.

As for `NC(=O)N1c2ccccc2C=Cc2ccccc21` [CBZ, Carbamazepine], the “Relative effect (RE) on drug solubility at 24 h” value in data set [2] (2% Ligamed MF-2-V) is 29%; in data set [2] (2% Ligamed MF-3-V), 27%. The “Solubility (BCS-based class)” value in data set [1] is “Low (31)”.

The values above are taken from PMC7242257, “Impact of Magnesium Stearate Presence and Variability on Drug Apparent Solubility Based on Drug Physicochemical Properties” (The AAPS Journal, 2020).
